Measured values published in patent US20260242738A1, “ALK5 INHIBITORS FOR EFFICIENT DERIVATION OF MESENCHYMAL STEM CELLS FROM EMBRYONIC STEM CELLS” (SCRIPPS HEALTH, priority 2022, published 2026).
Values joined by “and” are separate entries in the source; they are usually repeats but may differ in a detail not shown here. Equal entries are not always repeated. “Also recorded” adds a separate entry of the source.

What was measured:
HADC100 ESC = assay: Flow cytometry of MSC surface markers after ESC to MSC differentiation with ALK-5 inhibitors; assay type: cell-based, human; parameters: key to CD90 surface marker expression level / CD105 surface marker expression level / CD34 surface marker expression level / CD45 surface marker expression level / CD73 surface marker expression level: % cells positive relative to isotype control background; conditions: for triple positive for CD73, CD90 and CD105: co-expression analysis; for CD90 surface marker expression level / CD34 surface marker expression level / CD45 surface marker expression level / CD73 surface marker expression level / CD105 surface marker expression level: HADC100 ESC, SB525334 10 μM 5 days, GW788388 5 μM 5 days, ± standard deviation; for CD90 surface marker expression level: in %; for CD34 surface marker expression level / CD45 surface marker expression level / CD73 surface marker expression level / CD105 surface marker expression level: in % (unit assumed); for MSC differentiation / differentiating ES-MSC: overall statement of the discussion
Method: An overview of the differentiation process is provided in FIG. 1, panel K. To create cell clusters or embryoid bodies of uniform size, ESCs were removed from CellStart culture using Accutase® for 2-5 minutes until single cells were observed. […] After 24 hours, the cell clusters were suspended at 2.5-3×10^5 cells per ml in ultra-low adherent 6 well plates (Corning) in StemPro-34 serum free medium (ThermoFisher) supplemented with 2 mM L-glutamine (ThermoFisher Scientific), 50 μg/ml Ascorbic acid (Stemcell Technologies, Vancouver, Canada) and 1.8 μl/ml ITS-G (100× Insulin-Transferrin-Selenium; ThermoFisher); termed as “complete SP-34 medium”.
The medium was changed every 2 days by removing cell clusters into 15 ml sterile tubes and permitted to gravity settle for 10 minutes at room temperature. Most of the media was removed using a pipette to leave approximately 300-500 μl of medium. Freshly made medium (with the appropriate ALK5 inhibitor or DMSO) was replaced at the same volumes and well number into new ultra-low adherent plates.
After treatment with the appropriate ALK5 inhibitor, the cell clusters were removed by gravity settling and suspended in complete SP-34 medium supplemented with bFGF 20 ng/ml (without any ALK-5 inhibitor or DMSO) and transferred onto fibronectin (FN) coated (10 μg/ml; Fibronectin from human plasma, Sigma-Aldrich, St. Louis, MO) T75 cm^2 flasks (passage zero (P0)). The emerging cells and remaining cell clusters were exposed to Accutase® for 5-10 minutes, gently triturated and counted. The cells were seeded at […] in T75 FN coated flask (P1) and medium changed every 3-4 days until 80-90% confluence. At this point, the cells were detached using Accutase® for continued culture, screened for surface marker phenotype characterization (flow cytometry), placed into 3D cultures to assess chondrogenic differentiation capacity, or preserved in liquid nitrogen.
Cells were detached using Accutase®, washed and suspended in FACS buffer at a concentration of 0.2×10^6 cells per 100 μl. A panel of CD molecules were used, each with the following fluorochromes: CD34-FITC, CD45-BV510, CD73-APC (BioLegend, San Diego, California) CD90-PE-Cy7, and CD105-BV650 (BD Biosciences, Franklin Lakes, New Jersey). Matching isotype control IgGs with the same fluorochrome conjugates were used for background gating. For compensation of spectral overlap, unstained cells, and individual tubes with each fluorochrome were incubated with Dynabeads to distinguish between positive and negative fluorochrome signals. Data was acquired with the Novocyte flow cytometer (ACEA Biosciences Inc. San Diego, CA) and analyzed using FlowJo software (version 10, FlowJo, LLC, Ashland, OR) to determine percentage positive signal for each molecule relative to isotype background non-specific signal controls.

HADC 100 ES-MSC = assay: Pellet culture chondrogenesis, histology and immunohistochemistry; assay type: cell-based, human; conditions: 3 weeks; for cartilage-like tissue formation in high density pellets: HADC 100 ES-MSC, Safranin-O, collagen type I and II
Method: Monolayer-expanded ES-MSC (passage 2-5) were detached using Accutase® and 0.5×10^6 cells in 0.5 ml of chondrogenic medium were centrifuged at 900 rpm (~770 G) for 5 minutes to form high-density pellets. At least 5-6 pellets, for each ES-MSC condition, were cultured in serum-free chondrogenic medium consisting of Dulbecco's Modified Eagle Medium (Mediatech Inc., Manassas, VA), 1×ITS supplement (Sigma-Aldrich, St. Louis, MO), 100 nM Dexamethasone (Sigma), 1.25 mg/ml human serum albumin (Bayer, Leverkusen, Germany), 100 μM ascorbic acid 2-phosphate (Sigma), 1% penicillin/streptomycin/gentamycin (PSG, Gibco, Carlsbad, CA), and 10 ng/ml TGFβ3 (PeproTech, Rocky Hill, NJ). Pellets for ex vivo implantation were cultured for 3 days before implantation; pellets for histologic or gene expression analysis were maintained in culture for 3 weeks with media changes every 3 to 4 days.
Cell pellets and explants were fixed in Z-Fix (3.7% formaldehyde, Anatech Ltd., Battle Creek, MI), processed for embedding in paraffin, and cut into 4 μm-thick sections. Sections were stained with Safranin-O and Fast Green to visualize glycosaminoglycan distribution in the tissues. Alzarin Red S staining was used to detect the presence of mineralized matrix.
For assessment of collagen types I and II, sections were pretreated with pepsin (Digest-All 3, Thermo Fisher Scientific) for 9 minutes at 37° C. in a humid chamber before incubation at 4° C. for 12 to 16 hours with the following primary antibodies: rabbit anti-human collagen type I antibody (Ab 34710, Abcam, Cambridge, MA) 1 μg/ml; or mouse anti-human collagen type II (II-II6B3, Hybridoma Bank, University of Iowa) 2 μg/ml. For color development, the ImmPRESS secondary DAB (brown) or AP (red) kits (Vector Laboratories, Burlingame, CA) was used. Isotype controls were used to monitor non-specific staining.

[1] = N=4, SB431542 10 μM 10 days, listed as SB52
[2] = HADC 100 ES-MSC, SB431542 10 μM 10 days, N=4
[3] = N=4, SB431542 10 μM 10 days, listed as SB43

Row | Compound | triple positive for CD73, CD90 and CD105 (HADC100 ESC; HADC 100 ES-MSC) | CD90 surface marker expression level (HADC100 ESC; N=4, SB431542 10 μM 10 days) | CD34 surface marker expression level (HADC100 ESC; N=4, SB431542 10 μM 10 days) | CD45 surface marker expression level (HADC100 ESC; N=4, SB431542 10 μM 10 days) | CD73 surface marker expression level (HADC100 ESC; N=4, SB431542 10 μM 10 days) | CD105 surface marker expression level (HADC100 ESC; N=4, SB431542 10 μM 10 days) | CD90 surface marker expression level (HADC100 ESC; [1]) | CD105 surface marker expression level (HADC100 ESC; [1]) | MSC differentiation / differentiating ES-MSC (HADC100 ESC) | staining for GAGs, collagen type II and collagen type I in pellets compared to the other ALK5 inhibitors (HADC 100 ES-MSC; HADC 100 ES-MSC pellets) | cartilage-like tissue formation in high density pellets (HADC 100 ES-MSC) | CD73 positive cells (HADC100 ESC; HADC 100 ES-MSC) | CD90 positive cells (HADC100 ESC; [2]) | CD105 positive cells (HADC100 ESC; [2]) | CD90 surface marker expression level (HADC100 ESC; [3]) | CD105 surface marker expression level (HADC100 ESC; [3])
1 | Cc1cccc(-c2[nH]c(C(C)(C)C)nc2-c2ccc3nccnc3c2)n1 [SB525334] | 87±8% | 93.9±7.6 | 1.9 ± 0.9 | 1.5 ± 0.5 | 99.2 ± 1.0 | 85.4±12.2 | 93.9 ± 7.6 | 85.4 ± 12.2 | successfully induced MSC differentiation; also recorded: equally effective | most consistent staining for GAGs and collagen type II, and lower collagen type I signal; also recorded: most uniform GAGs and collagen type II deposition, and with reduced collagen type I | also produced cartilage-like tissue |  |  |  |  | 
2 | NC(=O)c1ccc(-c2nc(-c3ccc4c(c3)OCO4)c(-c3ccccn3)[nH]2)cc1 [SB431542] | 88±8% | 87.6±10.4 | 1.8 ± 0.9 | 1.2 ± 0.5 | 93.6 ± 11.8 | 86.1±6.5 |  |  | equally effective |  | consistently produced cartilage like-tissue | 94±12% and 93.6±11.8% | 88±10% | 86±7% | 87.6 ± 10.4 | 86.1 ± 6.5
